Test results as given in US6071709A, “Nerve growth factor/receptor complex” (The United States of America as represented by the …, priority 1992, dated 2000).

Assays:
[1] = system: gp145^trkB; test: gp145^trkB tyrosine phosphorylation in trkB-expressing NIH 3T3 cells (pJM8 lines), immunoprecipitation and α-Ptyr Western; assay type: cell-based, rat; conditions: for time to detection of trkB tyrosine phosphorylation / time to maximal levels of trkB tyrosine phosphorylation / concentration giving maximal gp145^trkB phosphorylation: pJM8-3 cells; for time to detection of trkB tyrosine phosphorylation / time to maximal levels of trkB tyrosine phosphorylation: 100 ng/ml; for concentration giving maximal gp145^trkB phosphorylation: dose response 0.1 to 250 ng/ml; for tyrosine phosphorylation of gp145^trkB: pJM8 trkB-expressing NIH 3T3 cells, 100 ng/ml factor, 5 min
Method: A 4.8 kb cDNA encompassing the coding domain of rat trkB (Middlemas et al., (1991)) was cloned into the pMEX plasmid (pJM8) downstream of the MSV promoter. NIH 3T3 cells were cotransfected with the pJM8 plasmid and a plasmid containing the neomycin phosphotransferase gene (L. F. Parada et al., Nature 312:649-651 (1984)), and G418-resistant colonies were selected. PC12 cells (Greene and Tischler, 1976) were grown in DMEM with 10% horse serum and 5% fetal calf serum. NIH 3T3 cells and the derivative cells lines were maintained in DMEM medium containing 10% calf serum. All cells were maintained in a humidified incubator at 37° C. in 5% CO2.
Approximately 10^7 cells were treated at 37° C. for 5 min with 100 ng/ml growth factors or at the concentrations and lengths of time noted in the text. NP-40 plate lysis and gp145^trkB immunoprecipitation with anti-serum 443 were performed as previously described (Kaplan et al., (1990), (1991)). The phosphotyrosine content was analyzed by Western transfer using monoclonal antibody 4G10 as previously described (Morrison et al., (1989)).
The product of the trk proto-oncogene (gp140^proto-trk) is tyrosine phosphorylated in response to NGF in PC12 cells, NGF-responsive neuroblastoma cells, heterologous fibroblasts and Xenopus oocytes (Kaplan et al., (1991); A. R. Nebreda et al., Science 252:558-560 (1991); Klein et al., (1991)). Next it was examined whether NGF elicited tyrosine phosphorylation of gp145^trkB in trkB-expressing NIH 3T3 cells. Cell line pJM8-3 was treated with high concentrations of NGF (100 ng/ml) for 5 minutes. The cells were lysed, immunoprecipitated with anti-trkB antiserum 443, transferred to nitrocellulose filters and probed with anti-phosphotyrosine (α-Ptyr) antibodies. As a negative control, untransfected NIH-3T3 cells were treated in parallel, while PC12 cells were used as a positive control for NGF responsiveness (Kaplan et al., (1991)).
BDNF and NT-3 are neurotrophic factors that display many functional and structural features that are reminiscent of NGF. The genes encoding BDNF and NT-3 have recently been cloned and used to express high levels of the biologically active factors in pure form (A. Rosenthal et al., Neuron 4:773 (1990)). It was tested whether these NGF-related neurotrophic factors would stimulate phosphorylation of the trkB glycoprotein by exposing the pJM-8 cell lines to 100 ng/ml of NGF, BDNF, or NT-3 (~4 nM) for 5 minutes. The cells were then lysed and the lysates incubated with a trkB anti-peptide antiserum (443) with or without excess peptide. After transfer to nitrocellulose filters, the trkB proteins were probed with an anti-phosphotyrosine (α-ptyr) monoclonal antibody (FIG. 10) (Kaplan et al. (1991)). […] Thus, both neurotrophic factors NT-3 and BDNF can elicit tyrosine phosphorylation of gp145^trkB in a manner similar to that observed for NGF stimulation of the trk receptor. Similar results have been obtained with NT-3 and BDNF in Rat2 cells expressing trkB.
Having detected gp145^trkB phosphorylation in response to BDNF and NT-3, it was next determined whether unrelated polypeptide growth factors were capable of eliciting a similar response. Platelet-derived growth factor (PDGF; 100 ng/ml), epidermal growth factor (EGF; 100 ng/ml), insulin (100 ng/ml), and basic fibroblast growth factor (bFGF; 100 ng/ml), were added independently to exponentially growing cultures of pJM8-3 cells.
The previous studies were done in the presence of high concentrations of neurotrophic factors. Dose response experiments were next performed to determine the range of concentrations at which phosphorylation of the trkB receptor was stimulated by NT-3 or BDNF. Cells were incubated with quantities of NT-3 or BDNF ranging from 0.1 ng/ml to 250 ng/ml and treated as described in FIG. 12. […]

[2] = target: p140^prototrk (Rattus norvegicus, UniProt P35739); test: trk tyrosine phosphorylation in rtrk-3T3 cells, suramin treatment followed by NGF (in vivo and immune complex kinase assays); assay type: cell-based; conditions: rtrk-3T3 cells, 1 mM suramin for 2 h
Sequence of p140^prototrk (P35739 33-799): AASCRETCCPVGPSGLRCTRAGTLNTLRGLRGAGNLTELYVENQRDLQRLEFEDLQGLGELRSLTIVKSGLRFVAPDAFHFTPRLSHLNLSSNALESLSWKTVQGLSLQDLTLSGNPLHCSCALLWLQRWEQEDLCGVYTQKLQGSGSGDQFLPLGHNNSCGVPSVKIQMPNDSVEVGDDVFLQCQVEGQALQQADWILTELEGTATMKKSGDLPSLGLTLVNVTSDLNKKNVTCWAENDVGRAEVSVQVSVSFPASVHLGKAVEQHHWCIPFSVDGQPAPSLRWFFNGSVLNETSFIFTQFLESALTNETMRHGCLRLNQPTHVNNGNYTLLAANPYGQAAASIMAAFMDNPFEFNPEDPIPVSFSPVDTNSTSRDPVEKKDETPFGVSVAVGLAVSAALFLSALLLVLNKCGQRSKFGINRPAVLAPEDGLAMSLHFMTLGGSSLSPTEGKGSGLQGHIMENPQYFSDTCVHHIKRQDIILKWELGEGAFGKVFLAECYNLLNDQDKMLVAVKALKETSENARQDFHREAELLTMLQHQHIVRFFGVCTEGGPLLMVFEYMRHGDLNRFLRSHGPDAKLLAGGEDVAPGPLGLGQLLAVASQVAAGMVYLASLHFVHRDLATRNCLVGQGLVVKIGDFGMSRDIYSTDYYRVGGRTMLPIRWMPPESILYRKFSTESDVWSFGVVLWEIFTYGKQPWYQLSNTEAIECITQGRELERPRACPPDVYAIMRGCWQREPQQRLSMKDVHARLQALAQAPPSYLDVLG
Method: rtrk 3T3 cells were generated by CaPO4 mediated transfection of a rat trk cDNA into NIH-3T3 cells. […] PC12 cells or rtrk 3T3 cells (2×10^7) were labeled with ^32 P orthophosphate (1 mCi.ml in 4 ml) for 4 hr at 37° C. […] For c, rtrk 3T3 cells were treated with 1 mM suramin in Dulbecco's Modified Eagle Medium (DMEM) for 2 h or mock treated. Following extensive washing of the cells with DMEM, NGF was added for the time indicated. Cells were lysed and the lysates were immunoprecipitated with trk antibody. Immunoprecipitates were either subjected to immunoblot analysis with the phosphotyrosine (Ptyr) monoclonal antibody 4G10 (Lanes 1-3), or were analyzed in kinase assays. […] Similar amounts of trk protein were present in each lane.

[3] = target: T1, gp140^prototrk (Rattus norvegicus, UniProt P35739); test: trk tyrosine phosphorylation in PC12 cells treated with NGF (32P labelling / Ptyr immunoblot of trk immunoprecipitates); assay type: cell-based; conditions: 15 min at 37° C., 100 ng/ml FGF or EGF, 100 nM insulin, 1 μg/ml PMA
T1 construct: tyrosine phosphorylation in response to NGF addition to PC12 cells; endogenous in cells; host or cells: PC12 cells
T1 sequence (P35739 33-799): as above
Method: FIGS. 1A-C show the tyrosine phosphorylation of gp140trk in PC12 cells and trk-expressing NIH-3T3 cells treated with NGF. FIG. 1A, gp140trk immunoprecipitated from PC12 cells or trk-expressing 3T3 cells labeled with ^32 P-orthophosphate. Immunoprecipitates were prepared with rabbit anti-trk antisera 43-4 (D. Martin-Zanca et al., Mol Cell. Biol. 9:24-33 (1989)) from lysates prepared from 3T3 cells expressing the rat trk gene (trk 3T3) (lane 1) or PC12 cells treated for 5 min with 100 ng/ml NGF at 37° C. (lanes 2 and 4) or mock treated (lane 3). The immunoprecipitate shown in lane 2 was prepared in the presence of the peptide used to generate the rabbit 43-4 trk antibody (Martin-Zanca et al., (1989)). Shown in FIG. 1B is the phosphoamino acid analysis of trk proteins phosphorylated in vitro in p140trk immunoprecipitates from NGF treated PC12 cells in vivo from NGF treated (+) or untreated (-) PC12 cells, or in vivo from trk 3T3 cells. The positions of phosphoserine (S), phosphothreonine (T), and phosphotyrosine (Y) are indicated. FIG. 1C, trk proteins from trk 3T3 cells phosphorylated […]. In lanes 1-3, gp140trk immunoprecipitates were probed with P-tyr antibodies. In lanes 4-6, gp140trk proteins were phosphorylated in vitro in kinase assays. Cells were treated with suramin (lanes 2 and 5) or with 500 ng/ml NGF for 10 min following suramin treatment. The band migrating at 110 kDa is a glycosylation precursor of gp140^prototrk (Martin-Zanca et al., (1989)). The band at the bottom of the figure is IgG. Molecular weight markers in kDa are indicated.
rtrk 3T3 cells were generated by CaPO4 mediated transfection of a rat trk cDNA into NIH-3T3 cells. Rat trk cDNAs were obtained from an embryonic rat DRG cDNA library. The longest trk cDNA obtained (2.4 kbp) was missing approximately 150 bp of the coding region as compared to available mouse and human trk sequence. The missing bases plus minimal (~50 bp) 5' flanking non-coding sequences were replaced from mouse first coding exon sequences and the reconstructed gene was placed downstream of an MSV-LTR. PC12 cells or rtrk 3T3 cells (2×10^7) were labeled with ^32 P orthophosphate (1 mCi.ml in 4 ml) for 4 hr at 37° C. Cells were treated with NGF for the indicated times, washed, lysed in buffer containing 1% NP40, and the lysates immunoprecipitated with trk antibody 43-4 (D. R. Kaplan et al., Cell 61:125-133 (1990)) and electrophoresed on 7.5% SDS-PAGE gels as previously described (Kaplan et al., (1990)). For b, the phosphorylated trk bands were eluted from the gel and phosphoamino acid analysis performed as described (B. M. Sefton et al., J. Cell 24:165-174 (1981)). gp140trk protein from NGF treated PC12 cells was phosphorylated in vitro. For c, rtrk 3T3 cells were treated with 1 mM suramin in Dulbecco's Modified Eagle Medium (DMEM) for 2 h or mock treated. Following extensive washing of the cells with DMEM, NGF was added for the time indicated. Cells were lysed and the lysates were immunoprecipitated with trk antibody. Immunoprecipitates were either subjected to immunoblot analysis with the phosphotyrosine (Ptyr) monoclonal antibody 4G10 (Lanes 1-3), or were analyzed in kinase assays. (D. K. Morrison, et al. Cell 58:649-657 (1989) and Kaplan et al., (1990)). Similar amounts of trk protein were present in each lane.
FIGS. 2A-C. Time course, growth factor specificity, and dose response of trk tyrosine phosphorylation in PC12 cells. A, Time course of trk tyrosine phosphorylation. Cells (2×10^7) were treated with 50 ng/ml NGF at 37° C. B, Effects of growth and differentiation factors on trk tyrosine phosphorylation. Cells were treated with 100 ng/ml NGF, 100 ng/ml basic fibroblast growth factor (FGF) (Boehringer Mannheim Biochemicals), 100 ng/ml epidermal growth factor (EGF) (Upstate Biotechnology, Inc.), 100 nM insulin (Sigma), or 1 μg/ml phorbal 12-myristate […] (PMA) (Sigma) for 15 min. at 37° C. C, dose response of trk tyrosine phosphorylation. […]

[4] = system: trkB; test: Growth factor stimulation of trkB transfected 3T3 cells (pJM8-3), COS cell supernatants, Ptyr blot; assay type: cell-based; conditions: trkB-expressing 3T3 cells (pJM8-3), 100 μl/ml NT-3 COS cell supernatant, 10 minutes at 37° C.
Method: To study the expression of trkB in transfected cell lines, full length trkB cDNAs were cloned into CMV and MuLV LTR expression vectors and transfected into NIH-3T3 fibroblasts, PC 12 pheochromocytoma cells and NR18 cells (a derivative of PC12 cells). Stable G418 resident clones were picked and expanded. Assays to detect cell lines expressing trkB were performed by detergent lysis of the cells, followed by WGA-sepharose adsorption. The adsorbed material was analyzed by SDS-PAGE on 7.5% gels, transferred to nitrocellulose and probed with antisera 442, a trkB specific rabbit antisera. The Western blots contained a WGA-sepharose extract of mouse brain as a control and BIORAD prestained molecular weight standards (200, 116, 80 and 43 kDa).
To study growth factor stimulation in cells transfected with trkB, NIH 3T3 trk transfected 3T3 (pJM7-23), trkB transfected 3T3 cells (pJM8-3) and non-transfected 3T3 cells (control cells) were exposed to media or media containing 100 μl/ml of NGF-COS cell supernatant, 100 μl/ml NT-3 COS cell supernatant, 5 μl/ml human platelet extract, or 50 μl/ml human platelet extract, for 10 minutes at 37° C. The plates were rinsed, lysed, and the trk or trkB was immunoprecipitated with rabbit antisera 443 and protein A Sepharose in the presence or absence of 10 μg/ml blocking peptide. […]

Row | Molecule | tyrosine phosphorylation of gp145^trkB [1] | induction of trk tyrosine phosphorylation by growth and differentiation factors [3] | other results
1 | BDNF: NGF related neurotrophic factor, brain-derived neurotrophic factor | strong phosphorylation | – | time to detection of trkB tyrosine phosphorylation [1]: one; time to maximal levels of trkB tyrosine phosphorylation [1]: ≤ 5 min; concentration giving maximal gp145^trkB phosphorylation [1]: 50 ng/mL
2 | Cc1ccc(C(=O)Nc2ccc(S(=O)(=O)O)c3cc(S(=O)(=O)O)cc(S(=O)(=O)O)c23)cc1NC(=O)c1cccc(NC(=O)Nc2cccc(C(=O)Nc3cc(C(=O)Nc4ccc(S(=O)(=O)O)c5cc(S(=O)(=O)O)cc(S(=O)(=O)O)c45)ccc3C)c2)c1 [suramin, reference compound] | – | – | tyrosine phosphorylation of p140^prototrk in vivo and in immune complex kinase assays [2]: markedly reduced
3 | basic FGF: basic fibroblast growth factor (Boehringer Mannheim Biochemicals) [reference compound] | No tyrosine-phosphorylated gp145^trkB was detected | failed to induce | –
4 | CCCCCCCCCCCCCC(=O)O[C@@H]1[C@@H](C)[C@@]2(O)[C@@H](C=C(CO)C[C@]3(O)C(=O)C(C)=C[C@@H]23)[C@@H]2C(C)(C)[C@]12OC(C)=O [PMA, phorbal 12-myristate 12-acetate, reference compound] | – | failed to induce | –
5 | insulin: insulin (Sigma) [reference compound] | No tyrosine-phosphorylated gp145^trkB was detected | failed to induce | –
6 | PDGF [reference compound] | No tyrosine-phosphorylated gp145^trkB was detected | – | –
7 | EGF: epidermal growth factor (Upstate Biotechnology, Inc.) [reference compound] | No tyrosine-phosphorylated gp145^trkB was detected | failed to induce | –
8 | NT-3: NGF related neurotrophic factor neurotrophin-3; HPLC-purified from Genentech or as COS cell supernatant (protein, UniProt P20783 139-257, looked up) Neurotrophin-3: YAEHKSHRGEYSVCDSESLWVTDKSSAIDIRGHQVTVLGEIKTGNSPVKQYFYETRCKEARPVKNGCRGIDDKHWNSQCKTSQTYVRALTSENNKLVGWRWIRIDTSCVCALSRKIGRT | strong phosphorylation | – | time to detection of trkB tyrosine phosphorylation [1]: one; time to maximal levels of trkB tyrosine phosphorylation [1]: ≤ 5 min; concentration giving maximal gp145^trkB phosphorylation [1]: 50 ng/mL; stimulation of trkB tyrosine phosphorylation [4]: stimulated
